Data from US20240358693A1, “METHODS OF TREATING PAIN” (Aisa Pharma, Inc., priority 2023, published 2024).

Tested on: participants with SSc-RP
Assay: Scleroderma Health Assessment Questionnaire (SHAQ): disability indices and visual analog scales
Assay type: in vivo, human
Details: for SHAQ Standard Disability Index: Baseline, Mean / SHAQ Standard Disability Index: Baseline, Median / SHAQ Standard Disability Index: Change from Baseline (Day 12), Mean / SHAQ Standard Disability Index: Change from Baseline (Day 12), Median / SHAQ Standard Disability Index: In-Clinic Visit (Day 12), Mean / SHAQ Standard Disability Index: In-Clinic Visit (Day 12), Median / SHAQ Standard Disability Index: Percent Change from Baseline (Day 12), Mean / SHAQ Standard Disability Index: Percent Change from Baseline (Day 12), Median: PP Population, Part A, sensitivity analysis
From the text: The standard, validated, patient reported outcome measures tool for SSc patients, the Scleroderma Health Assessment Questionnaire (SHAQ), will be used to assess the participant qualify of life. Details are attached in the Appendix. The participant quality of life will be scored, and a disability index calculated for each questionnaire completed by the patient at Screening and each in-clinic visit. The absolute change in participant quality of life from baseline to the end of each dosing period will be calculated similar to frequency data as before.
The SHAQ includes a Raynaud's VAS, which will be reported at screening and each in-clinic visit. The absolute change in Raynaud-VAS, assessed by the participants response to the SHAQ question ‘In the past 7 days, how much have your Raynaud's interfered with your daily activities?’ at baseline and the end of each dosing period will be calculated similar to frequency data as before.
The SHAQ is used to calculate a Disability Index to assess the participant qualify of life. The eight categories assessed by the Disability Index are 1) dressing and grooming, 2) arising, 3) eating, 4) walking, 5) hygiene, 6) reach, 7) grip, and 8) common daily activities. For each of these categories, patients report the amount of difficulty they have in performing two or three specific activities.
There are four possible responses for the Disability Index questions: • Without any difficulty=0 • With some difficulty=1 • With much difficulty=2 • Unable to do=3. • The highest score reported by the patient for any component question of the eight categories determines the score for that category. • If a component question is left blank or the response is too ambiguous to assign a score, then the score for that category is determined by the remaining completed question(s). • If all component questions are blank or if more than one answer is given, then follow up with the respondent is required. • If the respondent's mark is between the response columns, then move it to the closest one. If it's directly between the two, move it to the higher one.
Each of the disability items on the SHAQ has a companion aids/devices variable that is used to record what type(s) of assistance, if any, the participant uses for his/her usual activities. These variables (see below) are coded as follows: • 0=No assistance is needed. • 1=A special device is used by the patient in his/her usual activities. • 2=The patient usually needs help from another person. • 3=The patient usually needs BOTH a special device AND help from another person.
The scoring variables and scoring rules permit the computation of two disability indices, the Standard Disability Index and the Alternative Disability Index.
This question results in a new set of category scores that are computed by adjusting the score for each category, if necessary, based on the patient's use of an aid or device or assistance for that category. If either devices and/or help from another person are checked for a category, the score is set to “2”, unless the score is already “3” (i.e., scores of “0” or “1” are increased to “2”). For example, if the highest score for the dressing category is “1”, and the patient says they use a device for dressing, the computed category score would be “2”. The sum of the computed categories scores is then calculated and divided by the number of categories answered. This gives a score in the 0 to 3 range.
The aid and device variables are not used to calculate the alternative disability index; it is calculated by adding the scores for each of the categories and dividing by the number of categories answered. This gives a score in the 0 to 3 range.
The standard, validated, patient reported outcome measures tool for SSc patients, the SHAQ, was collected at the time points specified in the study schedules (FIG. 2 and FIGS. 4A and 4B) to assess the participant's quality of life. The SHAQ included a Raynaud's VAS that will also be reported separately.

[1] = Table C9, Pooled Cilnidipine 10 mg and Cilnidipine 10 mg + Tadalafil 5 mg
[2] = Table C9, Pooled Cilnidipine 20 mg and Cilnidipine 20 mg + Tadalafil 5 mg
[3] = Table C9, pooled cilnidipine 10 mg and 20 mg arms (plus tadalafil 5 mg where labelled)
[4] = Table C10, Pooled Cilnidipine 10 mg and Cilnidipine 10 mg + Tadalafil 5 mg
[5] = Table C10, Pooled Cilnidipine 20 mg and Cilnidipine 20 mg + Tadalafil 5 mg
[6] = Table C10, pooled cilnidipine 10 mg and 20 mg arms (plus tadalafil 5 mg where labelled)

COCCOC(=O)C1=C(C)NC(C)=C(C(=O)OC/C=C/c2ccccc2)C1c1cccc([N+](=O)[O-])c1 (centres unmarked) [Cilnidipine, cilnidipine]
SHAQ % Δ from baseline, VAS Finger Ulcers, median (Pooled cilnidipine (4)): −50.9%
SHAQ % Δ from baseline, alternative disability, mean (Pooled cilnidipine (4)): −12.9%
SHAQ % Δ from baseline, alternative disability, median (Pooled cilnidipine (4)): −22.2%
SHAQ % Δ from baseline, standard disability, mean (Pooled cilnidipine (4)): −25%
SHAQ % Δ from baseline, standard disability, median (Pooled cilnidipine (4)): −16.7%
SHAQ % Δ from baseline, Intestinal Problems, mean (Pooled cilnidipine (5)): −32.4%
SHAQ % Δ from baseline, Intestinal Problems, median (Pooled cilnidipine (5)): −44.1%
SHAQ % Δ from baseline, VAS Overall Disease Severity, mean (Pooled cilnidipine (6)): −59.8%
SHAQ % Δ from baseline, VAS Overall Disease Severity, median (Pooled cilnidipine (6)): −55.9%
SHAQ % Δ from baseline, VAS Pain, mean (Pooled cilnidipine (6)): −31.2%
SHAQ % Δ from baseline, VAS Pain, median (Pooled cilnidipine (6)): −45%
SHAQ % Δ from baseline, VAS Raynaud's, mean (Pooled cilnidipine (6)): −18.6%
SHAQ % Δ from baseline, VAS Raynaud's, median (Pooled cilnidipine (6)): −38.7%
SHAQ Standard Disability Index: Baseline, Mean [1]: 0.597
SHAQ Standard Disability Index: Baseline, Median [1]: 0.500
SHAQ Standard Disability Index: Change from Baseline (Day 12), Mean [1]: −0.021
SHAQ Standard Disability Index: Change from Baseline (Day 12), Median [1]: 0.000
SHAQ Standard Disability Index: In-Clinic Visit (Day 12), Mean [1]: 0.576
SHAQ Standard Disability Index: In-Clinic Visit (Day 12), Median [1]: 0.375
SHAQ Standard Disability Index: Percent Change from Baseline (Day 12), Mean [1]: 7.50%
SHAQ Standard Disability Index: Percent Change from Baseline (Day 12), Median [1]: 0.00%
SHAQ Standard Disability Index: Baseline, Mean [2]: 0.563
SHAQ Standard Disability Index: Baseline, Median [2]: 0.375
SHAQ Standard Disability Index: Change from Baseline (Day 12), Mean [2]: −0.065
SHAQ Standard Disability Index: Change from Baseline (Day 12), Median [2]: 0.000
SHAQ Standard Disability Index: In-Clinic Visit (Day 12), Mean [2]: 0.498
SHAQ Standard Disability Index: In-Clinic Visit (Day 12), Median [2]: 0.250
SHAQ Standard Disability Index: Percent Change from Baseline (Day 12), Mean [2]: −1.66%
SHAQ Standard Disability Index: Percent Change from Baseline (Day 12), Median [2]: −12.82%
SHAQ Standard Disability Index: Baseline, Mean [3]: 0.500
SHAQ Standard Disability Index: Baseline, Median [3]: 0.375
SHAQ Standard Disability Index: Change from Baseline (Day 12), Mean [3]: −0.031
SHAQ Standard Disability Index: Change from Baseline (Day 12), Median [3]: 0.000
SHAQ Standard Disability Index: In-Clinic Visit (Day 12), Mean [3]: 0.469
SHAQ Standard Disability Index: In-Clinic Visit (Day 12), Median [3]: 0.188
SHAQ Standard Disability Index: Percent Change from Baseline (Day 12), Mean [3]: −16.00%
SHAQ Standard Disability Index: Percent Change from Baseline (Day 12), Median [3]: 0.00%
SHAQ Standard Disability Index: Baseline, Mean [4]: 0.597
SHAQ Standard Disability Index: Baseline, Median [4]: 0.500
SHAQ Standard Disability Index: Change from Baseline (Day 12), Mean [4]: −0.021
SHAQ Standard Disability Index: Change from Baseline (Day 12), Median [4]: 0.000
SHAQ Standard Disability Index: In-Clinic Visit (Day 12), Mean [4]: 0.576
SHAQ Standard Disability Index: In-Clinic Visit (Day 12), Median [4]: 0.375
SHAQ Standard Disability Index: Percent Change from Baseline (Day 12), Mean [4]: 7.50%
SHAQ Standard Disability Index: Percent Change from Baseline (Day 12), Median [4]: 0.00%
SHAQ Standard Disability Index: Baseline, Mean [5]: 0.563
SHAQ Standard Disability Index: Baseline, Median [5]: 0.375
SHAQ Standard Disability Index: Change from Baseline (Day 12), Mean [5]: −0.065
SHAQ Standard Disability Index: Change from Baseline (Day 12), Median [5]: 0.000
SHAQ Standard Disability Index: In-Clinic Visit (Day 12), Mean [5]: 0.498
SHAQ Standard Disability Index: In-Clinic Visit (Day 12), Median [5]: 0.250
SHAQ Standard Disability Index: Percent Change from Baseline (Day 12), Mean [5]: −1.66%
SHAQ Standard Disability Index: Percent Change from Baseline (Day 12), Median [5]: −12.82%
SHAQ Standard Disability Index: Baseline, Mean [6]: 0.500
SHAQ Standard Disability Index: Baseline, Median [6]: 0.375
SHAQ Standard Disability Index: Change from Baseline (Day 12), Mean [6]: −0.031
SHAQ Standard Disability Index: Change from Baseline (Day 12), Median [6]: 0.000
SHAQ Standard Disability Index: In-Clinic Visit (Day 12), Mean [6]: 0.469
SHAQ Standard Disability Index: In-Clinic Visit (Day 12), Median [6]: 0.188
SHAQ Standard Disability Index: Percent Change from Baseline (Day 12), Mean [6]: −16.00%
SHAQ Standard Disability Index: Percent Change from Baseline (Day 12), Median [6]: 0.00%
mean decrease in patient reported disease severity on the SHAQ (pooled cilnidipine patients, 10 mg or 20 mg (n=7)): 60%
